{"source": "patent US11370816B2", "about": "“Histatins and method of use thereof” (THE BOARD OF TRUSTEES OF THE UNIVERSITY OF ILLINOIS, priority 2015, dated 2022)", "key": {"[1]": {"test_system": "Candida albicans", "conditions": "Jang, et al. (2008); cited from earlier work"}, "[2]": {"test_system": "human corneal epithelial cells", "assay": "Benzalkonium chloride (BAK) injury model, LDH release", "format": "cell-based", "conditions": "0.002% BAK", "description": "Columns represent the mortality (mean±SD) of cells, total cellular death being 100% (Control).\nOne particularly useful model of dry eye disease and inflammatory ocular disease is the use of benzalkonium chloride (BAK) to induce cell death, inflammation and injury to ocular surfaces and corneal cells (Tressler, et al. (2011) Ocul. Surf. 9:140-58; Paimela, et al. (2012) Mol. Vis. 18:1189-1196). Briefly, human corneal epithelial cells were cultured under standard conditions. Cells were treated with native HTN5 (50 μM) or synthetic histatin (10 μM) in the presence or absence of 0.002% BAK. The permeability of cellular membranes following the exposures was determined by measuring the amount of released lactate dehydrogenase (LDH) enzyme from the cells. Maximum LDH release of cells was determined by lysing cells, and subsequently measuring the LDH from the culture medium. […] Accordingly, endogenous and synthetic histatins could be used to protect cells from injury, inflammation and cell death and are therefore of use in the treatment of dry eye disease."}, "[3]": {"conditions": "Oudhoff, et al. (2008); cited from earlier work"}, "[4]": {"test_system": "Human umbilical vein endothelial cells (HUVECs)", "assay": "Tube formation assay, VEGF-induced angiogenesis", "format": "cell-based", "conditions": "VEGF 10 ng/mL, peptide 50 μM", "description": "Tube formation assays were used to assess the anti-angiogenic property of synthetic histatin compared to native HTN1 and HTN2. Human umbilical vein endothelial cells (HUVECs) were suspended in diluted MATRIGEL for an overnight incubation and then subjected to a media change containing VEGF (10 ng/mL) (Goodwin (2007) Microvasc. Res. 74:172-83) alone or VEGF (10 ng/mL) in combination with HTN1, HTN2 or synthetic histatin (50 μM)."}, "[5]": {"target": "T1, MMP2 (Homo sapiens, UniProt P08253)", "T1 sequence (P08253 110-660)": "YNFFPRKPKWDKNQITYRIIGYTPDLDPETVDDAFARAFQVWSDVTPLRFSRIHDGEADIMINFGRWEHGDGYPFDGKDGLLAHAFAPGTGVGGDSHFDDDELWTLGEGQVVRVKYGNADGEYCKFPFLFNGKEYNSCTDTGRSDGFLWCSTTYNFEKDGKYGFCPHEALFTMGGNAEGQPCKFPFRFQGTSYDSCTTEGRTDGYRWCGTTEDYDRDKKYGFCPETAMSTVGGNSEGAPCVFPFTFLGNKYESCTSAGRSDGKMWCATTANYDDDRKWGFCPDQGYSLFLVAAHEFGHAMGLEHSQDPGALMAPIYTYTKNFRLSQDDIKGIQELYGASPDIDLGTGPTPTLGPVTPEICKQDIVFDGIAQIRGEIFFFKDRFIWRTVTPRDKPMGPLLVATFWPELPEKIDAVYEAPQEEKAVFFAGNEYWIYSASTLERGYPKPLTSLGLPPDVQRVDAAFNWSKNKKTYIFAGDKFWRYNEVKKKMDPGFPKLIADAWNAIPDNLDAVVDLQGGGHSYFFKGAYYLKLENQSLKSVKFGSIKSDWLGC", "assay": "Zymography analysis of MMP2 inhibition", "format": "biochemical", "conditions": "pro-MMP2 activated with APMA, varying amounts of peptide", "description": "FIG. 1 show zymographic analysis of synthetic histatin inhibitory activity. Experiments included pro-MMP2 (100 ng; “−Ve”); activation of Pro-MMP2 with APMA (1 mM; “+Ve”); inclusion of a classic matrix metalloproteinase inhibitor, GM6001 (200 nM; “Inh”); and varying amounts of a synthetic histatin containing three metal binding domains from endogenous HTN5 and a wound healing domain from endogenous HTN1 (“H-1”). The protein ladder is shown on the right.\nZymography analysis of a synthetic histatin containing three metal binding domains from HTN5 and one wound healing domain (i.e., SEQ ID NO:29) was carried out using conventional methods. See, e.g., Thomadaki, et al. (2013) Oral Dis. 19(8):781-8."}, "[6]": {"test_system": "human corneal epithelium", "assay": "Gene expression changes after synthetic histatin application", "format": "cell-based", "conditions": "synthetic histatin treatment", "source_text": "Pathophysiological analyses of dry eye disease indicate that the critical factors involved in the development of dry eye disease involve inflammatory pathways including Th17/IL-17, I-CAM, IL-8, TNFα/IL-1/IL-6/NFκB, IL-10, MMP9 (and other matrix metalloproteinases) and TLR4/HSP (Stevenson, et al. (2012) Arch. Ophthalmol. 130(1):90-100). In addition, it has been reported that Ephrin A is involved in the development of epitheliopathy, poor wound healing and corneal disease related to elevated sugar levels/diabetic and neuropathic ulcers of the ocular surface. Accordingly, it was determined what effect synthetic histatin application would have on the gene expression in human corneal epithelium. […] Th17/IL-17 pathway is a central and important pathway in dry eye disease (Stevenson, et al. (2012) Arch Ophthalmol. 130(1):90-100)."}, "[7]": {"test_system": "human corneal epithelium cells", "assay": "In vitro scratch assay (cell migration, wound closure)", "format": "cell-based", "conditions": "for Time to Closure: control no closure in 48 hours", "source_text": "A conventional in vitro scratch assay was used to measure cell migration in the presence of a synthetic histatin containing three metal binding domains from HTN5 and one wound healing domain (i.e., SEQ ID NO:29). A “scratch” was made in a monolayer of human corneal epithelium cells and time lapsed microscopy was used to capture images at the beginning and at regular intervals during cell migration to close the scratch."}, "[8]": {"conditions": "Oppenheim, et al. (2012); cited from earlier work"}}, "note": "Starred links: 1 amine or outer side, 2 acyl side, 3 side chain; linkers in the order of their positions; H or OH if unused. Non-standard residues stand in square brackets, D forms with d. No end group written: not given here. (CH2)6 = -(CH2)6- hydrocarbon linking residues, C(CCC[*:2])CC[*:1]; pS = N[C@@H](COP(=O)(O)O)C(=O)O"}
{"substance": "AKRHHGYKRKFH [P-113]", "values": [{"measurement": "fungicidal activity", "setting": "[1]", "value": "exhibits fungicidal activity"}]}
{"substance": "DSHAKRHHGYKRKFHEKHHSHRGY [HTN5, endogenous (native) histatin 5, reference compound]", "values": [{"measurement": "cell death (released LDH)", "setting": "[2]; 50 μM peptide", "value": "statistically significant reduction in cell death"}, {"measurement": "wound closure activity in vitro", "setting": "[3]", "value": "inactivity"}]}
{"substance": "DSHAKRHHGYKRKFHEKHHSHRGYRSNYLYDN [HTN3, endogenous (native) histatin 3]", "values": [{"measurement": "wound closure activity in vitro", "setting": "[3]", "value": "exhibit wound closure activities in vitro"}]}
{"substance": "DSpHEKRHHGYRRKFHEKHHSHREFPFYGDYGSNYLYDN (D[pS]HEKRHHGYRRKFHEKHHSHREFPFYGDYGSNYLYDN) [HTN1, endogenous (native) histatin 1]", "values": [{"measurement": "wound closure activity in vitro", "setting": "[3]", "value": "exhibit wound closure activities in vitro"}, {"measurement": "formation of capillary-like structures / inhibition of angiogenesis", "setting": "[4]", "value": "inhibition of angiogenesis"}]}
{"substance": "HEKHH-(CH2)6-HEKHH-(CH2)6-HEKHH-(CH2)6-YGDYGSNYLYDN (HEKHH[(CH2)6]HEKHH[(CH2)6]HEKHH[(CH2)6]YGDYGSNYLYDN) [synthetic histatin]", "values": [{"measurement": "inhibition of MMP2 activity", "setting": "[5]", "value": "inhibited MMP2 activity in a dose-dependent manner"}, {"measurement": "cell death (released LDH)", "setting": "[2]; 10 μM peptide", "value": "statistically significant reduction in cell death"}, {"measurement": "expression of genes related to MMP activity", "setting": "[6]", "value": "reduced"}, {"measurement": "expression of several members of the TNFα/IL-1/IL-6/NFKB pathway", "setting": "[6]", "value": "significant reduced"}, {"measurement": "genes of the IL-10 pathway (62 genes) affected", "setting": "[6]", "value": 6}, {"measurement": "genes of the TLR4/HSP pathway (54 genes) significantly affected", "setting": "[6]", "value": 5}, {"measurement": "genes of the Th17/IL-17 pathway (44 genes) with significant changes in gene expression", "setting": "[6]", "value": 7}, {"measurement": "Time to Closure", "setting": "[7]; 1 μM synthetic histatin", "value": 48, "unit": "h"}, {"measurement": "Time to Closure", "setting": "[7]; 10 μM synthetic histatin", "value": 22, "unit": "h"}, {"measurement": "wound healing (reduction in time to wound closure)", "setting": "[7]; scratch in monolayer, time lapsed microscopy", "value": "notable enhancement of wound healing"}, {"measurement": "formation of capillary-like structures / inhibition of angiogenesis", "setting": "[4]", "value": "did not form such structures"}]}
{"substance": "RKFHEKHHSHREFPFYGDYGSNYLYDN [HTN2, endogenous (native) histatin 2]", "values": [{"measurement": "formation of capillary-like structures / inhibition of angiogenesis", "setting": "[4]", "value": "inhibition of angiogenesis"}]}
{"substance": "RKFHEKHHSHRGYR [SEQ ID NO:53]", "values": [{"measurement": "fungicidal activity", "setting": "[8]", "value": "exhibit fungicidal activity"}]}
